Where a SMILES comes first, the peptide text is derived from it. Side-chain parts run from the residue outwards. [ ]: non-standard residue; d: D form. The star is where a group is joined. DOTA = O=C(O)CN1CCN(CC(=O)O)CCN(CC(=O)*)CCN(CC(=O)O)CC1; PEG6 = NCCOCCOCCOCCOCCOCCOCCC(=O)O; Tle = CC(C)(C)[C@H](N)C(=O)O; Nlys = NCCCCNCC(=O)O
Tests used:
in vivo = experiment: in vivo; parameters: species or system nude mice; details: nude, mouse, total radioactivity
Description: 10–14 days after inoculation of the HT29 cells (tumor weight: 200–700 mg), the mice (about 10–12 weeks old with about 35–40 g body weight) were used for biodistribution studies. […] They were sacrificed by cervical dislocation 1 h, 4 h and 24 h after injection. Tumors and other tissues (blood, lung, liver, kidneys, heart, spleen, brain, muscle, femur and intestine) were rapidly removed and weighed. Radioactivity of the dissected tissues was measured using a gamma counter (Wallac Wizard, Perkin Elmer). Results were expressed as percentage of injected dose per gram of tissue (% ID/g), and tumor-to-organ ratios were calculated. Two randomly chosen mice were used for the determination of nonspecific tracer uptake in vivo. […] These mice were sacrificed by cervical dislocation at 4 h post injection (p.i.) and organs and tissue were removed, weighed and counted as described above.

tumor = details: ^188Re-labeled peptide, day 6 after begin of treatment; cited from earlier work

CC(C)C[C@H](NC(=O)[C@@H](NC(=O)[C@H](Cc1ccc(O)cc1)NC(=O)[C@@H]1CCCN1C(=O)[C@H](CCCCN)NC(=O)CN(CCCCN)C(=O)[C@@H](N)CCCCNC(=O)CCOCCOCCOCCOCCOCCOCCNC(=O)CN1CCN(CC(=O)O)CCN(CC(=O)O)CCN(CC(=O)O)CC1)C(C)(C)C)C(=O)O [[^177Lu]NT127, metal not drawn] (H-K([PEG6-DOTA])[Nlys]KPY[Tle]L-OH)
tissue to tissue ratio at 1 h (in vivo; iv): 30
tissue to tissue ratio at 24 h (in vivo; iv): 60
tissue uptake at 1 h (in vivo; iv): 0.05 %ID/g
tissue uptake at 24 h (in vivo; iv): 0.01 %ID/g
tissue uptake at 24 h (in vivo; iv, Accumulation in HT29 tumor): 0.6 %ID/g
tissue uptake at 1 h (in vivo; iv, Accumulation in kidney): 38 ± 1 %ID/g
tissue uptake at 24 h (in vivo; iv, Radioactivity concentration in liver): 0.4 %ID/g
tissue uptake at 4 h (in vivo; Accumulation in HT29 tumor): 1.1 %ID/g

(N^αHis)Ac-Arg-(N-CH3)-Arg-Pro-Dmt-Tle-Leu [NT-XIX]
Tumor growth in tumor-bearing nude mice (tumor): decreased
